Test results from patent US9656971B2, “COMT inhibitors” (Hoffmann-La Roche Inc., priority 2012, dated 2017).
Counter-ions that a name gives are not always drawn.

biological target: T1, Rec. human COMT (Homo sapiens, UniProt P21964); assay: COMT-Fluorescence Assay; assay type: biochemical; settings: COMT-fluorescence assay, rec. human COMT 25 nM, 4-Nitrocatechol-Alexa488 200 nM, SAM 500 nM; read-out: IC50
T1 sequence (P21964 1-271): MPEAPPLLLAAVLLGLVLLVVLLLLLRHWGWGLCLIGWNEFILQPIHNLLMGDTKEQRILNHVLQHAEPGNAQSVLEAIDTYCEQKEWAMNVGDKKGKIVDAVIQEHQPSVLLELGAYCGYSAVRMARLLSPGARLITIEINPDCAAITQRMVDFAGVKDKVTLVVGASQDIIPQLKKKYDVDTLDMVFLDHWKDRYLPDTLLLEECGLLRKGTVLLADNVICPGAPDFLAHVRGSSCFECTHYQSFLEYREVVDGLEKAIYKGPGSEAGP
Procedure: This intramolecular interaction is disturbed if the 4-Nitrocatechol is methylated. […] This increase of fluorescence intensity can be followed in a kinetic measurement. The slope in the linear range of the kinetic is calculated. An inhibitor compound decreases the slope.
Signal [rfu/min]=(rfu(end-point)−rfu(startpoint))/incubation_time_#2

IC50 | SMILES
110 nM | O=c1[nH]cnc2c(O)cc(Br)c([N+](=O)[O-])c12 [Example 44, 6-Bromo-8-hydroxy-5-nitro-3H-quinazolin-4-one]
20 nM | Cc1cc(F)ccc1-c1cc(O)c2nc[nH]c(=O)c2c1 [Example 127, 6-(4-Fluoro-2-methylphenyl)-8-hydroxyquinazolin-4(3H)-one]
10 nM | COCc1nc(C)sc1-c1cc(O)c2nc[nH]c(=O)c2c1 [Example 46, 8-Hydroxy-6-(4-(methoxymethyl)-2-methylthiazol-5-yl)quinazolin-4(3H)-one]
150 nM | O=c1[nH]cnc2c(O)c(F)c(Br)c(-c3ccc(F)cc3)c12 [Example 244, 6-Bromo-7-fluoro-5-(4-fluoro-phenyl)-8-hydroxy-3H-quinazolin-4-one]
220 nM | O=c1[nH]cnc2c(O)cc(-c3ccccc3CCCN3CCCC3)cc12 [Example 242, 8-Hydroxy-6-(2-(3-(pyrrolidin-1-yl)propyl)phenyl)quinazolin-4(3H)-one]
110 nM | COC(=O)c1csc(-c2cc(O)c3nc[nH]c(=O)c3c2)n1 [Example 84, Methyl 2-(8-hydroxy-4-oxo-3,4-dihydroquinazolin-6-yl)thiazole-4-carboxylate]
60 nM | COCCn1cc(-c2cc(O)c3nc[nH]c(=O)c3c2)cn1 [Example 47, 8-Hydroxy-6-(1-(2-methoxyethyl)-1H-pyrazol-4-yl)quinazolin-4(3H)-one]
20 nM | O=c1[nH]cnc2c(O)cc(-c3cccc4ccccc34)cc12 [Example 170, 8-Hydroxy-6-(naphthalen-1-yl)quinazolin-4(3H)-one]
40 nM | COc1ccc(-c2cc(O)c3nc[nH]c(=O)c3c2)cn1 [Example 163, 8-Hydroxy-6-(6-methoxypyridin-3-yl)quinazolin-4(3H)-one]
40 nM | O=c1[nH]cnc2c(O)cc(-c3ccccc3Cc3ccccc3)cc12 [Example 98, 6-(2-Benzylphenyl)-8-hydroxyquinazolin-4(3H)-one]
10 nM | O=c1[nH]cnc2c(O)cc(C#Cc3ccccc3)cc12 [Example 23, 8-Hydroxy-6-(phenylethynyl)quinazolin-4(3H)-one]
30 nM | COCc1c(C(=O)N2CCN(C)CC2)cccc1-c1cc(O)c2nc[nH]c(=O)c2c1 [Example 235, 8-Hydroxy-6-[2-methoxymethyl-3-(4-methyl-piperazine-1-carbonyl)-phenyl]-3H-quinazolin-4-one]
30 nM | O=c1[nH]cnc2c(O)cc(C3=CCCCC3)cc12 [Example 186, 6-Cyclohexenyl-8-hydroxyquinazolin-4(3H)-one]
640 nM | O=c1[nH]cnc2c(O)cc(-c3ccccc3-c3ccccc3)cc12 [Example 214, 6-(Biphenyl-2-yl)-8-hydroxyquinazolin-4(3H)-one]
50 nM | CN(C)S(=O)(=O)n1cnc(-c2cc(O)c3nc[nH]c(=O)c3c2)c1 [Example 77, 4-(8-Hydroxy-4-oxo-3,4-dihydroquinazolin-6-yl)-N,N-dimethyl-1H-imidazole-1-sulfonamide]
160 nM | O=c1[nH]cnc2c(O)cc(Br)c(C(F)(F)F)c12 [Example 41, 6-Bromo-8-hydroxy-5-(trifluoromethyl)quinazolin-4(3H)-one]
4210 nM | O=C(c1cc(O)c2nc[nH]c(=O)c2c1)N1CCOCC1 [Example 3, 8-Hydroxy-6-(morpholine-4-carbonyl)quinazolin-4(3H)-one]
130 nM | CN(C)CCCc1ccccc1-c1cc(O)c2nc[nH]c(=O)c2c1 [Example 243, 6-(2-(3-(Dimethylamino)propyl)phenyl)-8-hydroxyquinazolin-4(3H)-one]
40 nM | O=c1[nH]cnc2c(O)cc(-c3ccc(F)cc3)c(-c3ccnc(N4CCOCC4)c3)c12 [Example 59, 6-(4-Fluorophenyl)-8-hydroxy-5-(2-morpholinopyridin-4-yl)quinazolin-4(3H)-one]
40 nM | N#Cc1ccc(Cl)c(-c2cc(O)c3nc[nH]c(=O)c3c2)c1 [Example 27, 4-Chloro-3-(8-hydroxy-4-oxo-3,4-dihydroquinazolin-6-yl)benzonitrile]
40 nM | O=c1[nH]cnc2c(O)cc(-c3ccc4c(c3)OCO4)cc12 [Example 177, 6-(Benzo[d][1,3]dioxol-5-yl)-8-hydroxyquinazolin-4(3H)-one]

IC50 | SMILES
10 nM | O=c1[nH]cnc2c(O)cc(C3=Cc4ccccc4CC3)cc12 [Example 7, 6-(3,4-Dihydro-naphthalen-2-yl)-8-hydroxy-3H-quinazolin-4-one]
2000 nM | COC(=O)C(C)c1ccc(-c2ccccc2)c(-c2cc(O)c3nc[nH]c(=O)c3c2)c1 (racemic) [Example 32, (rac.) Methyl 2-(2-(8-hydroxy-4-oxo-3,4-dihydroquinazolin-6-yl)biphenyl-4-yl)propanoate]
30 nM | Cc1c(-c2cc(O)c3nc[nH]c(=O)c3c2)cnn1C [Example 206, 6-(1,5-Dimethyl-1H-pyrazol-4-yl)-8-hydroxyquinazolin-4(3H)-one]
730 nM | O=C(c1ccccc1-c1cc(O)c2nc[nH]c(=O)c2c1)N1CCS(=O)(=O)CC1 [Example 194, 6-[2-(1,1-Dioxo-1λ^6-thiomorpholine-4-carbonyl)-phenyl]-8-hydroxy-3H-quinazolin-4-one]
10 nM | Cc1cc(-c2c(-c3ccc(F)cc3)cc(O)c3nc[nH]c(=O)c23)ccn1 [Example 58, 6-(4-Fluorophenyl)-8-hydroxy-5-(2-methylpyridin-4-yl)quinazolin-4(3H)-one]
30 nM | O=c1[nH]cnc2c(O)c(F)c(-c3ccccc3)c(F)c12 [Example 38, 5,7-Difluoro-8-hydroxy-6-phenylquinazolin-4(3H)-one]
70 nM | CCOc1cc(F)ccc1-c1cc(O)c2nc[nH]c(=O)c2c1 [Example 211, 6-(2-Ethoxy-4-fluorophenyl)-8-hydroxyquinazolin-4(3H)-one]
10 nM | Cc1cc(C(=O)N2CCCCC2)sc1-c1cc(O)c2nc[nH]c(=O)c2c1 [Example 97, 8-Hydroxy-6-(3-methyl-5-(piperidine-1-carbonyl)thiophen-2-yl)quinazolin-4(3H)-one]
120 nM | O=c1[nH]cnc2c(O)cc(-c3ccccc3CO)c(Cl)c12 [Example 255, 5-Chloro-8-hydroxy-6-(2-hydroxymethyl-phenyl)-3H-quinazolin-4-one]
40 nM | O=c1[nH]cnc2c(O)cc(-c3cccnc3OCC(F)(F)F)cc12 [Example 216, 8-Hydroxy-6-(2-(2,2,2-trifluoroethoxy)pyridin-3-yl)quinazolin-4(3H)-one]
150 nM | Cn1cncc1-c1cc(O)c2nc[nH]c(=O)c2c1 [Example 79, 8-Hydroxy-6-(1-methyl-1H-imidazol-5-yl)quinazolin-4(3H)-one]
980 nM | CN(C)CCc1ccccc1-c1cc(O)c2nc[nH]c(=O)c2c1 [Example 234, 6-(2-(2-(Dimethylamino)ethyl)phenyl)-8-hydroxyquinazolin-4(3H)-one]
20 nM | O=c1[nH]cnc2c(O)cc(-c3ccccc3)cc12 [Example 128, 8-Hydroxy-6-phenylquinazolin-4(3H)-one]
20 nM | O=c1[nH]cnc2c(O)cc(-c3ccc(N4CCNCC4)nc3)cc12 [Example 184, 8-Hydroxy-6-(6-(piperazin-1-yl)pyridin-3-yl)quinazolin-4(3H)-one]
20 nM | CN1CCN(C(=O)c2cc(-c3cc(O)c4nc[nH]c(=O)c4c3)n(C)n2)CC1 [Example 230, 8-Hydroxy-6-(1-methyl-3-(4-methylpiperazine-1-carbonyl)-1H-pyrazol-5-yl)quinazolin-4(3H)-one formate]
50 nM | N#CCc1ccccc1-c1cc(O)c2nc[nH]c(=O)c2c1 [Example 208, 2-(2-(8-Hydroxy-4-oxo-3,4-dihydroquinazolin-6-yl)phenyl)acetonitrile]
40 nM | Cn1cc(-c2cc(O)c3nc[nH]c(=O)c3c2)c(C(F)(F)F)n1 [Example 82, 8-Hydroxy-6-(1-methyl-3-(trifluoromethyl)-1H-pyrazol-4-yl)quinazolin-4(3H)-one]
20 nM | Cc1ncccc1-c1cc(O)c2nc[nH]c(=O)c2c1 [Example 138, 8-hydroxy-6-(2-methylpyridin-3-yl)quinazolin-4(3H)-one]
1170 nM | COCc1ccc(C(=O)N2CCN(C)CC2)cc1-c1cc(O)c2nc[nH]c(=O)c2c1 [Example 233, 8-Hydroxy-6-[2-methoxymethyl-5-(4-methyl-piperazine-1-carbonyl)-phenyl]-3H-quinazolin-4-one; compound with formic acid]
90 nM | Cn1cc(-c2cc(O)c3nc[nH]c(=O)c3c2)cn1 [Example 179, 8-Hydroxy-6-(1-methyl-1H-pyrazol-4-yl)quinazolin-4(3H)-one]

same assay, conditions: IC50, COMT-fluorescence assay, rec. human COMT 25 nM, 4-Nitrocatechol-Alexa488 200 nM, SAM 500 nM

IC50 | SMILES
30 nM | Cc1ccc(-c2cc(O)c3nc[nH]c(=O)c3c2)cc1 [Example 130, 8-Hydroxy-6-p-tolylquinazolin-4(3H)-one]
50 nM | CN(C)CCc1cccc(-c2cc(O)c3nc[nH]c(=O)c3c2)c1 [Example 247, 6-(3-(2-(Dimethylamino)ethyl)phenyl)-8-hydroxyquinazolin-4(3H)-one]
220 nM | O=c1[nH]cnc2c(O)cc(-c3ccccc3N3CCOCC3)cc12 [Example 224, 8-Hydroxy-6-(2-morpholinophenyl)quinazolin-4(3H)-one]
30 nM | O=c1[nH]cnc2c(O)cc(-c3ccc(O)cc3)cc12 [Example 129, 8-Hydroxy-6-(4-hydroxyphenyl)quinazolin-4(3H)-one]
